What was measured:
a-Type Yeast = test: Phenotypic dose response of single yeast cells to a pheromone gradient in the microfluidic device; assay type: cell-based
Experimental: (§1) Using a device of the invention such as that shown in FIG. 1, analysis of phenotypic dose response in single cells was performed. Yeast cells were grown in YPD media to mid-log phase, and concentrated 10-fold before loading into syringes. The maximum pheromone concentrations used in the experiments was typically 75-100 nM, with varying minimum and maximum ranges for specific experiments. Pheromone diffusion was estimated by fluorescence imaging of the diffusion of Alexa Fluor dye 555 Hydrozide (Molecular Probes), with the MW of approximately 1150 Da (cf. 1684 Da MW of the a-factor), which was used at the concentration of 5 μM. […]
(§2) Images were acquired using the Nikon Eclipse TE2000-U inverted epi-fluorescence microscope, using 20× (evaluation of the gradient values), and 100× (oil immersion; evaluation of yEGFP fluorescence) objectives. Phase contrast images were taken with automatic exposure control, whereas most fluorescence measurements involved manually specified fixed exposure times. Typical gradient measurements using Alexa Fluor 555 dye were obtained using red filter (G-2 EIC, 540/25 excitation wavelength) at a fixed exposure time of 1 sec, whereas yEGFP-mediated fluorescence was obtained using the green filter (YEL-GFP HQ, 500/20 excitation wavelength) at fixed exposure times of 3 secs. […]

Fus1-yEGFP = Fus1-yEGFP expression in yeast cell clusters exposed to a pheromone gradient; assay type: cell-based
Experimental: as §1, §2

α-factor
phenotype after pre-incubation in high uniform pheromone concentration (a-Type Yeast; 75 nM uniform pheromone for 4 hrs): shmoo formation by all cells | pheromone concentration range in which percentages of budded (BD), cell cycle arrest (CCA) and SM cells were comparable (a-Type Yeast; pheromone gradients from 0 up to 100 nM in test chambers): 15 to 40 nM | pheromone concentration range with clear bimodal nuclear Fus1-yEGFP response (Fus1-yEGFP; six hours after exposure to 0-75 nM pheromone gradient): 15 to 45 nM | difference in Fus1-yEGFP expression between SM cells and cells of all other phenotypes in the bimodal region (Fus1-yEGFP; six hours, 0-75 nM pheromone gradient, bimodal region): approximately 1.7 fold

Reference: patent publication US20130337486A1, “MICROFLUIDIC DEVICE FOR HIGH-[…] GRADIENT AND DOSE RESPONSE STUDIES” (UCSD Tech Transfer Office, priority 2005, published 2013)
